Broadly, the bioavailability is dose-corrected exposure relative to a reference, in per cent. Low readings indicate little systemic uptake, high ones much systemic uptake. The term clearance denotes the volume of plasma or blood freed of the substance per unit of time. A high value points to efficient removal. As a reminder, the fraction unbound is the share of the substance not bound to proteins or other matrix. High values mean much free substance, low ones little free substance. The term half-life denotes the time in which the quantity being followed falls by half. High values mean slow loss, low ones fast loss. The term Papp denotes the rate of passage across a membrane or cell layer, normalised by area and donor concentration. In general, pEC50 refers to the EC50 on a negative log10 scale, so that one unit is a factor of ten. For orientation: pKi means the Ki on a negative log10 scale, so that one unit is a factor of ten. The pIC50 is the IC50 on a negative log10 scale, so that one unit is a factor of ten.

A short description of data set [1]: Oral bioavailability in Wistar Han rat at 3 mg/kg. The format is ADME, organism-based. The settings on record: in vivo.
Data set [2] can be described thus: Clearance in Wistar Han rat at 2 mg/kg, iv. The settings on record: in vivo. The format is ADME, organism-based.
The nature of data set [3]: Fraction unbound in human plasma at 2.5 uM by equilibrium dialysis. The format is ADME, cell-free. Background: In equilibrium dialysis only unbound substance equilibrates across the membrane.
The nature of data set [4]: Ratio of drug uptake in rat brain to plasma at 3 mg/kg, po measured after 8 hrs. The format is ADME, organism-based. Conditions: read-out: BPR.
Data set [5] can be described thus: AUCN in Wistar Han rat at 3 mg/kg, po. The format is ADME, organism-based. The settings on record: in vivo.
A short description of data set [6]: Half life in Wistar Han rat at 2 mg/kg, iv. The format is ADME, organism-based. Conditions: in vivo.
Data set [7] in a line: Fraction unbound in Wistar Han rat plasma at 2.5 uM by equilibrium dialysis. The format is ADME, cell-free.
In data set [8] the test system is MDR1. As to the kind of experiment: Apparent permeability in pig LLC-PK1 cells transfected with MDR1. The format is ADME, cell-based, Sus scrofa.
The nature of data set [9]: Drug uptake in rat brain at 3 mg/kg, po measured after 8 hrs. The format is ADME, organism-based. Conditions: in vivo.
The nature of data set [10]: Volume of distribution at steady state in Wistar Han rat at 2 mg/kg, iv or 3 mg/kg, po. The format is ADME, organism-based. The settings on record: in vivo, read-out: Vdss.
The test system of data set [11] is Rattus norvegicus. The experiment in a line: Elevation of O-protein in rat brain at 3 mg/kg, po measured after 8 hrs relative to control. The format is functional.
Data set [12] addresses T1, Protein O-GlcNAcase (Rattus norvegicus, UniProt Q8VIJ5).
T1 sequence (Q8VIJ5 whole entry): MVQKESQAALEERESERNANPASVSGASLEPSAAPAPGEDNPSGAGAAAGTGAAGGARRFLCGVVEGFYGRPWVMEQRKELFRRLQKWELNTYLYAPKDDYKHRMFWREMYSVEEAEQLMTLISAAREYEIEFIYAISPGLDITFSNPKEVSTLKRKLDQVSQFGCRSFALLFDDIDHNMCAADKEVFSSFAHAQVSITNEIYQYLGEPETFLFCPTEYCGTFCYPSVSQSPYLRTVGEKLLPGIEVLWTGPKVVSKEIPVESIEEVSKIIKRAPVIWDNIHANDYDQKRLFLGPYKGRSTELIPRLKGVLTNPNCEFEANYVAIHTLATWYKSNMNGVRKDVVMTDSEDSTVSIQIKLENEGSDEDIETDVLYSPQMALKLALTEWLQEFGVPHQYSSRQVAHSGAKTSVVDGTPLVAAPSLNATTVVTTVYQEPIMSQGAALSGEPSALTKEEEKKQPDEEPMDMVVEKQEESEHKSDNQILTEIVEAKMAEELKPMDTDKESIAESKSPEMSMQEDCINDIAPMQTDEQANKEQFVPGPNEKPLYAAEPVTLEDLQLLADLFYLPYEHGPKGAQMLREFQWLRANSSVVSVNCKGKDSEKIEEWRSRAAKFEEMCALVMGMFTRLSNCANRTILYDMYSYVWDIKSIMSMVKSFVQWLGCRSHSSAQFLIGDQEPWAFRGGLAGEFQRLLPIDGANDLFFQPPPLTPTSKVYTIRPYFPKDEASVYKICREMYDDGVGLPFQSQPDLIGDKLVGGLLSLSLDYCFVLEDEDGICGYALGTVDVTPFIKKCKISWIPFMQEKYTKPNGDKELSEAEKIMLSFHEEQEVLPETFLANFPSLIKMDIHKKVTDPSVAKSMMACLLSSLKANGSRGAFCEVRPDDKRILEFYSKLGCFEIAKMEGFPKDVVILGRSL
As to the kind of experiment: Inhibition of OGA in rat PC12 cells assessed as OGlcNAcylated protein level incubated for 24 hrs by ELISA. The format is cell-based. In general terms: ELISA stands for enzyme-linked immunosorbent assay.

Data set [13] concerns the target T2, Protein O-GlcNAcase (Homo sapiens, UniProt O60502).
T2 sequence (O60502 whole entry): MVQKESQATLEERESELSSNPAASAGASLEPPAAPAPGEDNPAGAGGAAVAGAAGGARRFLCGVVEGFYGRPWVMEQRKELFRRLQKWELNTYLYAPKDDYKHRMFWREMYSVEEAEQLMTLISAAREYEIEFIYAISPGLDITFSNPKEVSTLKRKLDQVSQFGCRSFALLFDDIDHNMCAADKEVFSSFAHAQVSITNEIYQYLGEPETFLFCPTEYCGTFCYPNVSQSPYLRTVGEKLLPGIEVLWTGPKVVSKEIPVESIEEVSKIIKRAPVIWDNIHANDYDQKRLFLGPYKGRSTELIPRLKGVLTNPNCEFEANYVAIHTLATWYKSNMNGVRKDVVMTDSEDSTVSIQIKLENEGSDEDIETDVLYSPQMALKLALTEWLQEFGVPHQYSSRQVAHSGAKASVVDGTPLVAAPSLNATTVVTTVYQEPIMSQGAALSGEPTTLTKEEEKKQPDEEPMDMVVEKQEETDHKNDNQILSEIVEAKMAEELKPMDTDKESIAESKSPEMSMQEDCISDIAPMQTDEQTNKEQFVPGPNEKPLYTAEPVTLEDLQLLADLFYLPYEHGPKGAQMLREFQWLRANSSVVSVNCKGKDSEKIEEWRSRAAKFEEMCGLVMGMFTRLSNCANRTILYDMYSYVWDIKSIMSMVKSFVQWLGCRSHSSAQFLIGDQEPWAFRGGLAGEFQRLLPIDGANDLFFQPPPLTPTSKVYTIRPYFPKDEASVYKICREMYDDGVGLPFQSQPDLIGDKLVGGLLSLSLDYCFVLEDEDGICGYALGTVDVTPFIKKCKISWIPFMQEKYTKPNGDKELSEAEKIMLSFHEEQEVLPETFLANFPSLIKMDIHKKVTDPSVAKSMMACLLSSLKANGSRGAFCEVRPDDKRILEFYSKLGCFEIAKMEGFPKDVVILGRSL
The experiment in a line: Inhibition of recombinant human OGA.

The target of data set [14] is T3, Beta-hexosaminidase subunit beta (Homo sapiens, UniProt P07686).
T3 sequence (P07686 whole entry): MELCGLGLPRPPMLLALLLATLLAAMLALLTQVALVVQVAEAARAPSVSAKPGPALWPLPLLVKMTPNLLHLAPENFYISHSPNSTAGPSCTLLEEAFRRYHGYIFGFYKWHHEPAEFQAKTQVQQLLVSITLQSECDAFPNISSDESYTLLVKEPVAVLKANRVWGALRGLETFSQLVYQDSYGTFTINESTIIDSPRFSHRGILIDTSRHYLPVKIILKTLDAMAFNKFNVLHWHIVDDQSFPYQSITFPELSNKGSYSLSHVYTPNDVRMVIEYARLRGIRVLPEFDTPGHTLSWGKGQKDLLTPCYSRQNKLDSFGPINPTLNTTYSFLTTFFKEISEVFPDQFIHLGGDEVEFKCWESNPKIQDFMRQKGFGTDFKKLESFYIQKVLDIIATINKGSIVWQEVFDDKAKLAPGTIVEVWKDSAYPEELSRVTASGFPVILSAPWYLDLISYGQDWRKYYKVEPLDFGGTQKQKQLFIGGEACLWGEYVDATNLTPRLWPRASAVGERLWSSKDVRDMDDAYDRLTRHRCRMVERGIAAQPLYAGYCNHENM
The experiment in a line: Inhibition of human beta hexosaminidase assessed as inhibitory constant using 4-methylumbelliferyl N-acetyl-beta-D-glucosaminide dihydrate as substrate measured every 60 sec for 45 mins by fluorescence spectrophotometry.

The target of data set [15] is Cytochrome P450 2D6 (Homo sapiens, UniProt P10635). As to the kind of experiment: Inhibition of CYP2D6 (unknown origin). The format is ADME.
The target of data set [16] is Voltage-dependent L-type calcium channel subunit alpha-1C (Homo sapiens, UniProt Q13936). The experiment in a line: Inhibition of Cav1.2 (unknown origin).
Data set [17] deals with T4, Nuclear receptor subfamily 1 group I member 2 (Homo sapiens, UniProt O75469).
T4 sequence (O75469 whole entry): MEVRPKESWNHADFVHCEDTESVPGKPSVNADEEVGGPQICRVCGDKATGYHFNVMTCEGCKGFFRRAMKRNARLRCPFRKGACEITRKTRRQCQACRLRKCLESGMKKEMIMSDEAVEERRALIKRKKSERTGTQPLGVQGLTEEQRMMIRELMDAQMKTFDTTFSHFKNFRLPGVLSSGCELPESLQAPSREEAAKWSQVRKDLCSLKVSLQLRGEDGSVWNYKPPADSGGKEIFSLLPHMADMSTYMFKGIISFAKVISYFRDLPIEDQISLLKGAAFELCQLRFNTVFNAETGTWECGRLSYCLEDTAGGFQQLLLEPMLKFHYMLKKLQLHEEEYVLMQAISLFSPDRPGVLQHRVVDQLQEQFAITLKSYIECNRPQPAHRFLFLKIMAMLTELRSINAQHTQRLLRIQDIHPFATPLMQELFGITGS
As to the kind of experiment: Activation of PXR (unknown origin) assessed as CYP3A4 induction.

The target of data set [18] is Sodium channel protein type 5 subunit alpha (Homo sapiens, UniProt Q14524). The experiment in a line: Inhibition of Nav1.5 (unknown origin).
Data set [19] addresses Cytochrome P450 3A4 (Homo sapiens, UniProt P08684). The experiment in a line: Inhibition of CYP3A4 (unknown origin). The format is ADME.
Data set [20] addresses Voltage-gated inwardly rectifying potassium channel KCNH2 (Homo sapiens, UniProt Q12809). As to the kind of experiment: Displacement of MK-0499 from human ERG.
In data set [21] the target is Cytochrome P450 2C9 (Homo sapiens, UniProt P11712). As to the kind of experiment: Inhibition of CYP2C9 (unknown origin). The format is ADME.
Data set [22] can be described thus: Oral bioavailability in Wistar Han rat at 10 mg/kg. The format is ADME, organism-based. The settings on record: in vivo.

pEC50, pIC50, pKi: −log10 of the molar value. Bounds are passed on as bounds.

Chain of Cytochrome P450 3A4 (P08684 whole entry): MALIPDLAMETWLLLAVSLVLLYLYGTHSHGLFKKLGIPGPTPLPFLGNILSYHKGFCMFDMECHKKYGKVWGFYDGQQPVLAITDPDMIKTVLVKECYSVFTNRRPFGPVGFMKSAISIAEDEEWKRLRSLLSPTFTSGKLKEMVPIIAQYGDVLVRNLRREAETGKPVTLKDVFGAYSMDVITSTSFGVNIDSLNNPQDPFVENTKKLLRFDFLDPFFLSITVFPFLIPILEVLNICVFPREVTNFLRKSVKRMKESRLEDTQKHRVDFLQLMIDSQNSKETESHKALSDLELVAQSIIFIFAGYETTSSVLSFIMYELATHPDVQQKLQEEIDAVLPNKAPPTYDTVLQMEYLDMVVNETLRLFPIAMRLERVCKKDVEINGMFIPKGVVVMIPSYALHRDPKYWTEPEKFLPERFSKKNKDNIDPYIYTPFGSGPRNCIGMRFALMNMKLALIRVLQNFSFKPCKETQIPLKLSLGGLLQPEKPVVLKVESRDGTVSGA
Chain of Sodium channel protein type 5 subunit alpha (Q14524 whole entry): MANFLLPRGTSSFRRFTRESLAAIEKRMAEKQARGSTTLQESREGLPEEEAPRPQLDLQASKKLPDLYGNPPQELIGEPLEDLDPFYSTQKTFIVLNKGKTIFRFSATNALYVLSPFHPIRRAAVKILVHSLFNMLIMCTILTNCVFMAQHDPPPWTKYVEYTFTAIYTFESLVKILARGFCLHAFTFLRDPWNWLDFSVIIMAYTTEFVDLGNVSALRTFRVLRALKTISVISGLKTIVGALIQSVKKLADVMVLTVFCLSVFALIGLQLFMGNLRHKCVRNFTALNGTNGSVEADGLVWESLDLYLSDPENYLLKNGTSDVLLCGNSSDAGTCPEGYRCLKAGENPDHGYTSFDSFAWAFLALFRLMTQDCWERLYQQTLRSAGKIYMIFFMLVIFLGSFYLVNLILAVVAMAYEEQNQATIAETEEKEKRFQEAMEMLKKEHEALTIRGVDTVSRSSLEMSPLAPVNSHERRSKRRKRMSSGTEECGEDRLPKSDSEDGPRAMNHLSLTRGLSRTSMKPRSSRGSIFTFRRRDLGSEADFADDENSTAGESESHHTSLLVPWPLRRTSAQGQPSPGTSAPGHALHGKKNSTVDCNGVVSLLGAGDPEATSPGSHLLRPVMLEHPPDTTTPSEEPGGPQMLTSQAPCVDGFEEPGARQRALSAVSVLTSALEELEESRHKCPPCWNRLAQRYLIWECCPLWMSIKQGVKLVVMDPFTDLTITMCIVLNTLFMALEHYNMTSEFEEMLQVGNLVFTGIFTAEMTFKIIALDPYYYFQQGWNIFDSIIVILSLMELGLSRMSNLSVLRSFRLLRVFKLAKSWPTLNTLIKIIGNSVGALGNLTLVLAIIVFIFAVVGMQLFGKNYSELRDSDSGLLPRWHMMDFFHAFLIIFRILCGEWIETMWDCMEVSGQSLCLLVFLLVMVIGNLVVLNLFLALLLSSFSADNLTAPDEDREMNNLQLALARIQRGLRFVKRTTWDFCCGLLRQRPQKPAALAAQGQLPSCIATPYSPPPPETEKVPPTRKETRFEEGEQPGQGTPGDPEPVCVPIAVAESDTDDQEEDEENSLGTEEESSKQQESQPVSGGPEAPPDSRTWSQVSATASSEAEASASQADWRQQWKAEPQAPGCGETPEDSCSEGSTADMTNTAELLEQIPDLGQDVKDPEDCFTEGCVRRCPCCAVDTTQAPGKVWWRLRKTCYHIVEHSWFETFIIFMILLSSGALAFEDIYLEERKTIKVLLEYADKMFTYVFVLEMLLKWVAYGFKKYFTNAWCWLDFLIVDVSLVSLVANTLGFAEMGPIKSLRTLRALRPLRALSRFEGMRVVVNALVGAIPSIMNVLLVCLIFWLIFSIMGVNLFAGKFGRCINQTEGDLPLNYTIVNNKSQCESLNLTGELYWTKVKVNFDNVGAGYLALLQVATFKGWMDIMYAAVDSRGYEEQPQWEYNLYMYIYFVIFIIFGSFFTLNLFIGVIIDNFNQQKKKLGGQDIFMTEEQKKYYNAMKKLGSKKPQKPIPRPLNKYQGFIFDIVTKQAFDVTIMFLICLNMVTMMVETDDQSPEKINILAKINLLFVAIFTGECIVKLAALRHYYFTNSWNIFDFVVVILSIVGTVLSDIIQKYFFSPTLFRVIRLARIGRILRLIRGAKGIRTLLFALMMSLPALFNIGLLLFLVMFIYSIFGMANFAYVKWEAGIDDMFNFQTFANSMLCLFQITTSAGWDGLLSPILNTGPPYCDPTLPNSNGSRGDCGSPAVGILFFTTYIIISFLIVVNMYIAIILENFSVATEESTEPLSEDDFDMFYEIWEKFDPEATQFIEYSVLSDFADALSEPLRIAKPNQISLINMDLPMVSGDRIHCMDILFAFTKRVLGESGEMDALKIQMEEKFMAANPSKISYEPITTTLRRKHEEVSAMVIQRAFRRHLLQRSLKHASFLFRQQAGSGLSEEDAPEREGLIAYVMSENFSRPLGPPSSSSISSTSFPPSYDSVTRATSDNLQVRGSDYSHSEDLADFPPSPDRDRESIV
Chain of Voltage-gated inwardly rectifying potassium channel KCNH2 (Q12809 whole entry): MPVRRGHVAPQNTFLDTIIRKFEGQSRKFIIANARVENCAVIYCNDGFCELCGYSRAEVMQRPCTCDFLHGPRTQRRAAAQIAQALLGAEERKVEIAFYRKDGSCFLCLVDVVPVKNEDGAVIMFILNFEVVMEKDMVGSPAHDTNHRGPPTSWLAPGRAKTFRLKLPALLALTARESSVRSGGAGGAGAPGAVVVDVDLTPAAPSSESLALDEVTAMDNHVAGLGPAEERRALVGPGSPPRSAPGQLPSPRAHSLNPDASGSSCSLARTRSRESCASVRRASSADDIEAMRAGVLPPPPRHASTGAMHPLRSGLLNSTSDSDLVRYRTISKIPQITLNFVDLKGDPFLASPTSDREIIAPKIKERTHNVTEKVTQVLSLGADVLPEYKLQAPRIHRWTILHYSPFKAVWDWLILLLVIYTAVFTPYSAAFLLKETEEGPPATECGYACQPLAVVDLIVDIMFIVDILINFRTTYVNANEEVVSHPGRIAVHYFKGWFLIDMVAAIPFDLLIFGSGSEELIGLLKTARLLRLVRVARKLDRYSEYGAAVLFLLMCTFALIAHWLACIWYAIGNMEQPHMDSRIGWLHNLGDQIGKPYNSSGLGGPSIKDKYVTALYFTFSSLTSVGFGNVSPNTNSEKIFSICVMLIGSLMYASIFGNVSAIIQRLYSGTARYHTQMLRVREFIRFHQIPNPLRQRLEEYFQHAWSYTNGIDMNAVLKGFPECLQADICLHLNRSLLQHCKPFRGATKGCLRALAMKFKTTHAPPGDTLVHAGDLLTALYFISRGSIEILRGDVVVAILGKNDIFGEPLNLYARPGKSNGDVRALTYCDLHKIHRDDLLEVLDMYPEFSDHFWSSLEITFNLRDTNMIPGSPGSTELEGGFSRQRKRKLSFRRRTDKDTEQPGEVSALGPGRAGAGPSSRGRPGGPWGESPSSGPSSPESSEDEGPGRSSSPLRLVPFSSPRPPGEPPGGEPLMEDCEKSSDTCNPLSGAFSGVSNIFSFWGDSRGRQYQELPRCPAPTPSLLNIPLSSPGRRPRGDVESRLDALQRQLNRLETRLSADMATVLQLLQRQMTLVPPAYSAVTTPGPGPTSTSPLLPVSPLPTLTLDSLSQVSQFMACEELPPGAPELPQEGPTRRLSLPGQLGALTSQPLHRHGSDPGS
Chain of Cytochrome P450 2C9 (P11712 whole entry): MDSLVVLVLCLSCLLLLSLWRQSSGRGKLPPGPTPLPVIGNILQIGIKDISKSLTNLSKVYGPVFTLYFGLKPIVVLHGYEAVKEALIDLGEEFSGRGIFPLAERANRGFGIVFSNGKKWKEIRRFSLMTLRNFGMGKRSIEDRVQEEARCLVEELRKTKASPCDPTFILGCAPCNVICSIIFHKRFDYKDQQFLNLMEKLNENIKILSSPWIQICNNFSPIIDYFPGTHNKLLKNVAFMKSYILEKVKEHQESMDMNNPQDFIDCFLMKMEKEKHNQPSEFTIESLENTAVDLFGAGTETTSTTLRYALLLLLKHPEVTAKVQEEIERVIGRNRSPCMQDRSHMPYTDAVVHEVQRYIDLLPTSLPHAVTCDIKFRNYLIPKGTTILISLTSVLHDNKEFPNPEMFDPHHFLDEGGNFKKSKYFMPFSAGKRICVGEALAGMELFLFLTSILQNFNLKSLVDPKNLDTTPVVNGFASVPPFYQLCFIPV
Chain of Cytochrome P450 2D6 (P10635 whole entry): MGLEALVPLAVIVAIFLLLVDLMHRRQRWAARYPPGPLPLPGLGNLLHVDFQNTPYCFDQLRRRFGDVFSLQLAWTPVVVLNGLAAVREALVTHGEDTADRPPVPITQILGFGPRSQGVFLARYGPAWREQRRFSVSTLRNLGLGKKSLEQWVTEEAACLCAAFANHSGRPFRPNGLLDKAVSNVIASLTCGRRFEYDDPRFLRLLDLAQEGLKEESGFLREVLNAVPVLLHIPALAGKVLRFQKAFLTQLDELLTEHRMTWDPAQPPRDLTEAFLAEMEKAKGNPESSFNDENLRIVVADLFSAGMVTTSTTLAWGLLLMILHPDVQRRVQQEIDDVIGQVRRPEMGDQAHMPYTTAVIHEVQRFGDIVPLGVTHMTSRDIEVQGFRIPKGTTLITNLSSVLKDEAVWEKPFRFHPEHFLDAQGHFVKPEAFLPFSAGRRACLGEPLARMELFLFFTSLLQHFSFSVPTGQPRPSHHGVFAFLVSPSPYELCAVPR

Regarding `CNC1=N[C@@H]2[C@@H](O)[C@H](O)[C@@H](C(F)F)O[C@@H]2S1`, the bioavailability in data set [1] was found to be 93.8%. The same molecule displayed a clearance in [2] of 27.1 mL/min/kg. Also, the fraction unbound at 2.5 µM turned out to be 0.77 in data set [3] and 0.83 in data set [7]. In [4], the Kp at 8 h came out at 1.33. The same molecule had an AUC/dose in [5] of 2.54 µM·kg·h/mg. In addition, the half-life in data set [6] was 1.48 h. In addition, the Papp in data set [8] was 5.7 ×10⁻⁶ cm/s. Moreover, in data set [9], the Drug uptake is given as 0.133 nmol/g. Also, the Vd in [10] is 1.72 L/kg. For the same molecule, in data set [11], the “fold change (FC)” value was 2. In addition, the pEC50 in data set [12] is 8.77. Besides, the pKi in data set [13] was 9.44; in [14], 5.89.

Regarding `CCNC1=N[C@@H]2[C@@H](OC)[C@H](O)[C@@H](CO)O[C@@H]2S1`, the pIC50 was under 4.30 in data set [15]; under 4.52 in data set [16]; under 4.52 in data set [18]; under 4.30 in data set [19]; under 4.52 in [20]; under 4.30 in [21]. The pEC50 in data set [17] is under 4.52. Besides, the negative logarithm of the Ki (pKi) is 6.57 in data set [13] and under 5.00 in data set [14].

Consider `CCNC1=N[C@@H]2C[C@H](O)[C@@H](CO)O[C@@H]2S1`, for which the negative logarithm of the IC50 (pIC50) is under 4.30 in data set [15]; under 4.52 in data set [16]; under 4.52 in data set [18]; under 4.30 in [19]; under 4.52 in [20]; under 4.30 in data set [21]. The Papp in [8] stood at 2.6 ×10⁻⁶ cm/s. Also, the pEC50 in data set [17] was under 4.52. Moreover, the pKi in [14] is under 5.00.

In the case of `CCNC1=N[C@@H]2[C@@H](O)[C@H](OC)[C@@H](CO)O[C@@H]2S1`, the pIC50 is under 4.30 in data set [15]; under 4.52 in data set [16]; under 4.52 in [18]; under 4.30 in data set [19]; under 4.52 in [20]; under 4.30 in [21]. In addition, in [17], the pEC50 is under 4.52. In addition, the pKi in data set [13] is under 5.52.

Regarding `CCCNC1=N[C@@H]2[C@@H](O)[C@H](O)[C@@H](CF)O[C@@H]2S1`, the Papp in [8] stood at 17 ×10⁻⁶ cm/s. Besides, the bioavailability in data set [22] was found to be 75.3%. Besides, the pEC50 in [12] is 6.92. The results for the negative-log Ki (pKi) in data set [13] and in [14] were 7.85 and under 5.00, respectively.
